Assay: log P determination by HPLC on reverse-phase column (EEC Directive 79/831 Annex V.A8)
Type: physicochemical
Conditions: not given
Outline: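 Log P was derived from retention times by linear interpolation between successive unbranched alkan-2-one standards (C3–C16). The standards and samples ran on a C18 reverse-phase column at 43 °C with a 10→95% acetonitrile gradient in 0.1% formic acid (pH 2.7). The method follows EEC Directive 79/831 Annex V.A8.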

SMILES	logP
CC(C)NC(=O)c1cc(Cl)cc(Cl)c1NC(=O)c1cc(Cn2cc(C(F)(F)C(F)(F)F)c(C(F)(F)C(F)(F)F)n2)nn1-c1ncccc1Cl [I-1-294]	4.00
O=C(NC1CC1)c1cc(Cl)cc(Cl)c1NC(=O)c1cc(Cn2nc(C(F)(F)F)nc2C(F)(F)F)nn1-c1ncccc1Cl [I-1-295]	2.95
NC(=O)c1cc(Cl)cc(Cl)c1NC(=O)c1cc(Cn2cc(C(F)(F)C(F)(F)F)c(C(F)(F)C(F)(F)F)n2)nn1-c1ncccc1Cl [I-1-296]	3.43
CNC(=O)c1cc(Cl)cc(Cl)c1NC(=O)c1cc(Cn2cc(C(F)(F)C(F)(F)F)c(C(F)(F)C(F)(F)F)n2)nn1-c1ncccc1Cl [I-1-297]	3.59
NC(=O)c1cc(Cl)cc(Cl)c1NC(=O)c1cc(Cn2nc(C(F)(F)F)nc2C(F)(F)F)nn1-c1ncccc1Cl [I-1-298]	2.61
N#CCNC(=O)c1cc(Cl)cc(Cl)c1NC(=O)c1cc(Cn2cc(C(F)(F)C(F)(F)F)c(C(F)(F)C(F)(F)F)n2)nn1-c1ncccc1Cl [I-1-299]	3.53
O=C(NC1CC1)c1cc(Cl)cc(Cl)c1NC(=O)c1cc(Cn2nc(C(F)(F)F)cc2C(F)(F)F)nn1-c1ncccc1Cl [I-1-300]	3.19
CC(C)NC(=O)c1cc(Cl)cc(Cl)c1NC(=O)c1cc(Cc2ccoc2)nn1-c1ncccc1Cl [I-1-301]	2.60
NC(=O)c1cc(Cl)cc(Cl)c1NC(=O)c1cc(Cn2nc(C(F)(F)F)cc2C(F)(F)F)nn1-c1ncccc1Cl [I-1-302]	2.80
N#CCNC(=O)c1cc(Cl)cc(Cl)c1NC(=O)c1cc(Cn2nc(C(F)(F)F)cc2C(F)(F)F)nn1-c1ncccc1Cl [I-1-303]	2.98
CNC(=O)c1cc(Cl)cc(Cl)c1NC(=O)c1cc(Cn2nc(C(F)(F)F)cc2C(F)(F)F)nn1-c1ncccc1Cl [I-1-304]	3.01
CC(C)NC(=O)c1cc(Cl)cc(Cl)c1NC(=O)c1cc(Cn2nc(C(F)(F)F)cc2C(F)(F)F)nn1-c1ncccc1Cl [I-1-305]	3.40
CNC(=O)c1cc(Cl)cc(Cl)c1NC(=O)c1cc(Cc2ccoc2)nn1-c1ncccc1Cl [I-1-306]	2.18
NC(=O)c1cc(Cl)cc(Cl)c1NC(=O)c1cc(Cn2cc(Cl)c(C(F)(F)C(F)(F)F)n2)nn1-c1ncccc1Cl [I-1-307]	2.95
CNC(=O)c1cc(Cl)cc(Cl)c1NC(=O)c1cc(Cn2cc(Cl)c(C(F)(F)C(F)(F)F)n2)nn1-c1ncccc1Cl [I-1-308]	3.18
CC(C)NC(=O)c1cc(Cl)cc(Cl)c1NC(=O)c1cc(Cn2cc(Cl)c(C(F)(F)C(F)(F)F)n2)nn1-c1ncccc1Cl [I-1-309]	3.53
N#CCNC(=O)c1cc(Cl)cc(Cl)c1NC(=O)c1cc(Cn2cc(Cl)c(C(F)(F)C(F)(F)F)n2)nn1-c1ncccc1Cl [I-1-310]	3.13
NC(=O)c1cc(Cl)cc(Cl)c1NC(=O)c1cc(Cn2ccc(C(F)(F)F)n2)nn1-c1ncccc1Cl [I-1-311]	2.21
CNC(=O)c1cc(Cl)cc(Cl)c1NC(=O)c1cc(Cn2ccc(C(F)(F)F)n2)nn1-c1ncccc1Cl [I-1-312]	2.37
N#CCNC(=O)c1cc(Cl)cc(Cl)c1NC(=O)c1cc(Cn2ccc(C(F)(F)F)n2)nn1-c1ncccc1Cl [I-1-313]	2.43
CC(C)NC(=O)c1cc(Cl)cc(Cl)c1NC(=O)c1cc(Cn2ccc(C(F)(F)F)n2)nn1-c1ncccc1Cl [I-1-314]	2.77

SMILES	logP
O=C(NC1CC1)c1cc(Cl)cc(Cl)c1NC(=O)c1cc(Cn2ccc(C(F)(F)F)n2)nn1-c1ncccc1Cl [I-1-315]	2.54
CNC(=O)c1cc(Cl)cc(Cl)c1NC(=O)c1cc(Cc2cccnc2)nn1-c1ncccc1Cl [I-1-316]	1.03
CC(C)NC(=O)c1cc(Cl)cc(Cl)c1NC(=O)c1cc(Cc2cccnc2)nn1-c1ncccc1Cl [I-1-317]	1.31
CC(C)NC(=O)c1cc(Cl)cc(Cl)c1NC(=O)c1cc(Cc2cncnc2)nn1-c1ncccc1Cl [I-1-318]	1.62
NC(=O)c1cc(Cl)cc(Cl)c1NC(=O)c1cc(Cc2cncnc2)nn1-c1ncccc1Cl [I-1-319]	2.02
N#CCNC(=O)c1cc(Cl)cc(Cl)c1NC(=O)c1cc(Cc2cncnc2)nn1-c1ncccc1Cl [I-1-320]	1.49
CNC(=O)c1cc(Cl)cc(Cl)c1NC(=O)c1cc(Cc2cncnc2)nn1-c1ncccc1Cl [I-1-321]	1.41
CNC(=O)c1cc(Cl)cc(Cl)c1NC(=O)c1cc(Cc2c(C)noc2C)nn1-c1ncccc1Cl [I-1-322]	1.94
Cc1cc(Cl)cc(C(=O)NC(C)C)c1NC(=O)c1cc(Cn2cnc(C(F)(F)C(F)(F)F)n2)nn1-c1ncccc1Cl [I-1-323]	3.01
C[C@@H](C[S+](C)[O-])NC(=O)c1cc(Cl)cc(Cl)c1NC(=O)c1cc(Cn2cc(C(F)(F)C(F)(F)F)c(C(F)(F)C(F)(F)F)n2)nn1-c1ncccc1Cl (stereo partly shown) [I-1-325]	3.54
CNC(=O)c1cc(Cl)cc(Cl)c1NC(=O)c1cc(Cn2cnc(C(F)(F)C(F)(F)F)n2)nn1-c1ncccc1Cl [I-1-326]	2.55
CC(C)NC(=O)c1cc(Cl)cc(Cl)c1NC(=O)c1cc(Cn2cnc(C(F)(F)C(F)(F)F)n2)nn1-c1ncccc1Cl [I-1-327]	2.97
C[C@@H](CS(C)(=O)=O)NC(=O)c1cc(Cl)cc(Cl)c1NC(=O)c1cc(Cn2cc(C(F)(F)C(F)(F)F)c(C(F)(F)C(F)(F)F)n2)nn1-c1ncccc1Cl [I-1-328]	3.63
CNC(=O)c1cc(Cl)cc(C)c1NC(=O)c1cc(Cn2cnc(C(F)(F)C(F)(F)F)n2)nn1-c1ncccc1Cl [I-1-329]	2.57
Cc1cc(Cl)cc(C(N)=O)c1NC(=O)c1cc(Cn2cnc(C(F)(F)C(F)(F)F)n2)nn1-c1ncccc1Cl [I-1-330]	2.39
Cc1cc(Cl)cc(C(=O)NC2CC2)c1NC(=O)c1cc(Cn2cnc(C(F)(F)C(F)(F)F)n2)nn1-c1ncccc1Cl [I-1-331]	2.78
Cc1cc(Cl)cc(C(=O)NCC#N)c1NC(=O)c1cc(Cn2cnc(C(F)(F)C(F)(F)F)n2)nn1-c1ncccc1Cl [I-1-332]	2.59
CNC(=O)c1cc(C#N)cc(C)c1NC(=O)c1cc(Cn2cnc(C(F)(F)C(F)(F)F)n2)nn1-c1ncccc1Cl [I-1-333]	2.25
Cc1cc(Cl)cc(C(=O)NC(C)C)c1NC(=O)c1cc(Cn2cnc(C(F)(F)C(F)(F)F)n2)nn1-c1ncccc1Cl [I-1-334]	2.66
O=C(NC1CC1)c1cc(Cl)cc(Cl)c1NC(=O)c1cc(Cn2cnc(C(F)(F)C(F)(F)F)n2)nn1-c1ncccc1Cl [I-1-335]	2.69
NC(=O)c1cc(Cl)cc(Cl)c1NC(=O)c1cc(Cn2cnc(C(F)(F)C(F)(F)F)n2)nn1-c1ncccc1Cl [I-1-336]	2.32

SMILES	logP
N#CCNC(=O)c1cc(Cl)cc(Cl)c1NC(=O)c1cc(Cn2cnc(C(F)(F)C(F)(F)F)n2)nn1-c1ncccc1Cl [I-1-337]	2.56
Cc1cc(C#N)cc(C(=O)NC2CC2)c1NC(=O)c1cc(Cn2cnc(C(F)(F)C(F)(F)F)n2)nn1-c1ncccc1Cl [I-1-338]	2.45
Cc1cc(C#N)cc(C(N)=O)c1NC(=O)c1cc(Cn2cnc(C(F)(F)C(F)(F)F)n2)nn1-c1ncccc1Cl [I-1-339]	2.11
CC(C)NC(=O)c1cc(Cl)cc(Cl)c1NC(=O)c1cc(Cn2cnc(C(F)(F)C(F)(F)F)n2)nn1-c1ncccc1Cl [I-1-340]	2.55
Cc1cc(Cl)cc(C(=O)NC(C)C)c1NC(=O)c1cc(Cn2cnc(C(F)(F)C(F)(F)F)n2)nn1-c1ncccc1Cl [I-1-341]	2.63
CNC(=O)c1cc(Cl)cc(Cl)c1NC(=O)c1cc(Cn2cnc(C(F)(F)C(F)(F)F)n2)nn1-c1ncccc1Cl [I-1-342]	2.15
Cc1cc(Cl)cc(C(N)=O)c1NC(=O)c1cc(Cn2cnc(C(F)(F)C(F)(F)F)n2)nn1-c1ncccc1Cl [I-1-343]	2.02
O=C(NC1CC1)c1cc(Cl)cc(Cl)c1NC(=O)c1cc(Cn2cnc(C(F)(F)C(F)(F)F)n2)nn1-c1ncccc1Cl [I-1-344]	2.37
Cc1cc(Cl)cc(C(=O)NC2CC2)c1NC(=O)c1cc(Cn2cnc(C(F)(F)C(F)(F)F)n2)nn1-c1ncccc1Cl [I-1-345]	2.42
NC(=O)c1cc(Cl)cc(Cl)c1NC(=O)c1cc(Cn2cnc(C(F)(F)C(F)(F)F)n2)nn1-c1ncccc1Cl [I-1-346]	2.01
CNC(=O)c1cc(Cl)cc(C)c1NC(=O)c1cc(Cn2cnc(C(F)(F)C(F)(F)F)n2)nn1-c1ncccc1Cl [I-1-347]	2.19
Cc1cc(Cl)cc(C(=O)NCC#N)c1NC(=O)c1cc(Cn2cnc(C(F)(F)C(F)(F)F)n2)nn1-c1ncccc1Cl [I-1-348]	2.21
N#CCNC(=O)c1cc(Cl)cc(Cl)c1NC(=O)c1cc(Cn2cnc(C(F)(F)C(F)(F)F)n2)nn1-c1ncccc1Cl [I-1-349]	2.19
Cc1cc(C#N)cc(C(N)=O)c1NC(=O)c1cc(Cn2cnc(C(F)(F)C(F)(F)F)n2)nn1-c1ncccc1Cl [I-1-350]	1.75
Cc1cc(C#N)cc(C(=O)NCC#N)c1NC(=O)c1cc(Cn2cnc(C(F)(F)C(F)(F)F)n2)nn1-c1ncccc1Cl [I-1-351]	1.96
CNC(=O)c1cc(C#N)cc(C)c1NC(=O)c1cc(Cn2cnc(C(F)(F)C(F)(F)F)n2)nn1-c1ncccc1Cl [I-1-352]	1.91
Cc1cc(C#N)cc(C(=O)NC2CC2)c1NC(=O)c1cc(Cn2cnc(C(F)(F)C(F)(F)F)n2)nn1-c1ncccc1Cl [I-1-353]	2.08
Cc1cc(C#N)cc(C(=O)NC(C)C)c1NC(=O)c1cc(Cn2cnc(C(F)(F)C(F)(F)F)n2)nn1-c1ncccc1Cl [I-1-354]	2.23
CNC(=O)c1cc(Cl)cc(C)c1NC(=O)c1cc(C(=NOC)n2nc(C(F)(F)F)cc2C(F)(F)F)nn1-c1ncccc1Cl [I-1-355]	4.07

Same assay, conditions: HPLC, reverse-phase column (C 18), 43° C., acidic range pH 2.7

logP	SMILES
4.08	Cc1cc(Cl)cc(C(=O)NC(C)C)c1NC(=O)c1cc(Cn2nc(C(F)(F)F)cc2C(F)(F)F)nn1C [I-2-1]
3.85	CC(C)NC(=O)c1cc(Cl)cc(Cl)c1NC(=O)c1cc(Cn2nc(C(F)(F)F)nc2C(F)(F)F)nn1C(C)C [I-2-2]
3.31	CNC(=O)c1cc(Cl)cc(Cl)c1NC(=O)c1cc(Cn2nc(C(F)(F)F)nc2C(F)(F)F)nn1C(C)C [I-2-3]
